The results in this text go back to patent US9018630B2, “Heterocyclic dinaphtho thieno thiophene (DNTT) compounds for use as organic semiconductor thin films in field effect transistors and related methods” (Nippon Kayaku Kabushiki Kaisha, priority 2011, dated 2015).

The nature of data set [1]: Solubility at 60° C. in toluene (Example 52). The format is physicochemical. An excerpt:
(§1) Absorption spectrums of saturated solutions obtained by dissolving the DNTT having a C10 alkyl group at 2,9-positions (compound (2)-64), the DNTT having a C10 alkyl group at 3,10-positions (compound (1)-12), and the like in chloroform are shown in FIG. 4. In the case of the DNTT having a C10 long-chain alkyl group, from the results, the relative intensity of the longest absorption wavelength according to the substitution position was 3.9 in 3,10-C10-DNTT (compound (1)-12) wherein the relative intensity was 1 in 2,9-C10-DNTT (compound (2)-64). […] It was clearly found out that the solubility of 3,10-C10-DNTT (compound (1)-12) was also high in a heating state (Table 10).

Data set [2] is described as follows: Absorption spectrums of saturated chloroform solutions, solubility ratio (Example 52, FIG. 4). The format is physicochemical. The following applies: for relative intensity of the longest absorption wavelength / Solubility ratio Chloroform: saturated chloroform solutions; for relative intensity of the longest absorption wavelength: 2,9-C10-DNTT = 1; for Solubility ratio Chloroform: compound (2)-64 = 1; for solubility ratio: from FIG. 4, solubility of the DNTT = 1.
Text: as §1
(§2) From FIG. 4 wherein the solubility of the DNTT was 1, the solubility ratio of the DNTT having a short alkyl chain Ref-02 was 0.1 and the solubility ratio of the DNTT having a short alkyl chain Ref-03 was 0.5. […] It was also found out that considering the solution process, the compound having an alkyl substituent at 3,10-positions has more excellent properties. Namely, use of such high solubility enables production of a field effect transistor by creating a practical ink for creating a semiconductor device or applying the ink created.

A short description of data set [3]: Solvent solubility, qualitative statements. The format is physicochemical.
Text: as §2

A short description of data set [4]: Heat resistance test of TC type field effect transistors (Example 51). The following applies: heat resistance test of the transistor. As for the experimental part: Using the compound (1)-22 synthesized in Example 39 and the compound (2)-64 synthesized in Synthesis Example 14, TC type field effect transistors were created by the same operation as that in Example 49 except that a substrate treated with HMDS-SAM was used, the substrate temperature during deposition was 100° C., L=40 μm, and W=1500 μm. The obtained field effect transistors were subjected to a heat resistance test. Comparing the initial properties (μ=1.66 cm^2/Vs, Vth=−14 V, Ion/off˜10^9), the mobility was approximately 1.6 cm^2/Vs even after annealing at 100° C. and 150° C., and the values of these properties were kept approximately equal to the initial values thereof. The properties were improved, for example, Vth was shifted to a low potential side.

Values after ≈ are worked out from the molar mass of the structure shown.

The molecule `CCCCCCCCCCc1ccc2cc3sc4c5cc6cc(CCCCCCCCCC)ccc6cc5sc4c3cc2c1` [(1)-12, 3,10-didecyl dinaphtho[2,3-b:2′,3′-f]thieno[2,3-b]thiophene] displayed a melting point of 187 to 188 °C. For the same molecule, the solubility in data set [1] (organic solvent or mixture, 60° C., toluene) was more than 260 µg/mL. For the same molecule, in data set [2], the “relative intensity of the longest absorption wavelength” value is 3.9 and the “Solubility ratio Chloroform” value is reported as 3.8. The solvent solubility entry in data set [3] is given as “higher solvent solubility than that of the compound (2)-64”.

Molecule `c1ccc(-c2ccc3cc4sc5c6cc7cc(-c8ccccc8)ccc7cc6sc5c4cc3c2)cc1` [(1)-22, 3,10-diphenyl dinaphtho[2,3-b:2′,3′-f]thieno[3,2-b]thiophene] returned a melting point of more than 300 °C. The thermal stability entry in data set [4] is “high thermal stability”.

With `CCCCCCCCCCc1ccc2cc3sc4c5cc6cc(CCCCCCCCCC)ccc6cc5sc4c3cc2c1` [(2)-64, 2,9-didecyldinaphtho[2,3-b:2′,3′-f]thieno[2,3-b]thiophene], in data set [1], the “Solubility 60° C. toluene” value worked out at 45 µg/mL (≈ 72.5 µM). In data set [2], the “relative intensity of the longest absorption wavelength” value is 1 and the “Solubility ratio Chloroform” value was determined as 1.

For `c1ccc2cc3c(cc2c1)sc1c2cc4ccccc4cc2sc31` [Ref-01, Dinaphtho[2,3-b:2′,3′-f]thieno[3,2-b]thiophene], the solubility ratio in data set [2] is on record as 1. In data set [3], the solvent solubility result is given as “does not dissolve in most of solvents”.

Take `Cc1ccc2cc3sc4c5cc6cc(C)ccc6cc5sc4c3cc2c1` [Ref-02]: the solubility ratio in data set [2] is 0.1. The solvent solubility entry in data set [3] was “do not dissolve in most of solvents”.

As to `Cc1ccc2cc3c(cc2c1)sc1c2cc4ccc(C)cc4cc2sc31` [Ref-03], the solubility ratio in data set [2] was 0.5. Besides, the solvent solubility entry in data set [3] is listed as “do not dissolve in most of solvents”.
